According to US20250122169A1, “PPARG INVERSE AGONISTS AND USES THEREOF” (Flare Therapeutics Inc., priority 2021, published 2025):
pEC50: −log10 of the molar value.

How the values were obtained:
[1] = target: T1, PPARG/RXRA LBD heterodimer (Homo sapiens, UniProt P37231); experiment: PPARγ-NCOR1 recruitment assay (TR-FRET); type: biochemical; details: for Emax: 3 h, maximal extent, T0070907 defined as 100%, DMSO 0%, read-out: % NCOR recruitment relative to T907; for pEC50: TR-FRET, NCOR1 ID2 peptide, 80 nM Rosiglitazone, 3 hours, read-out: PPARG-NCOR recruitment assay EC50
T1 construct: 2 nM WT PPARG LBD (E. coli expressed, His-TEV-Q203-Y477); fused on or other part: N-terminal His tag with TEV site on the PPARG LBD
Protocol: Compound potency (EC50) and maximal extent of NCOR1 recruitment to PPARG were assessed a TR-FRET binding assay measuring association of a biotinylated NCOR1 ID2 peptide (Biotin-[…]-amide) to PPARG/RXRA LBD heterodimer.
T1 sequence (O75376 2251-2273 limits assumed, one chain of several, further chain): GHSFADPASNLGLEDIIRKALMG

[2] = test system: ANGPTL4, a PPARG target gene, in HT1197 (RXRA S427F mutation) cells; experiment: Bladder cancer pharmacodynamic assay, HT1197 cell assay (qPCR of PPARG target gene ANGPTL4); type: cell-based; details: Homo sapiens; for inhibition at 0.1 µM: read-out: % inhibition of ANGPTL4 @ 100 nM, 100 nM compound, 24 hours, relative to DMSO control; for pEC50: 24 hours treatment, qPCR
Protocol: Quantitative PCR was performed using an ABI QuantStudio 7 Flex Reaction system. Data were analyzed and reported relative to DMSO control using the comparative Ct method (ΔΔCt).

[3] = target: T2, PPARG/RXRA LBD heterodimer (Homo sapiens, UniProt P37231); experiment: PPARγ-MED1 blockade assay (TR-FRET); type: biochemical; details: for pEC50: TR-FRET, MED1 LxxLL peptide, 80 nM Rosiglitazone, 3 hours; for Emax: maximal extent, GW9662 defined as 100%, DMSO 0%, read-out: % MED1 blockade relative to GW9662
T2 construct: His-TEV-Q203-Y477; Uniprot ID P37231-2; made in house; host or cells: E. coli
T2 sequence (P37231 203-477 isoform P37231-2): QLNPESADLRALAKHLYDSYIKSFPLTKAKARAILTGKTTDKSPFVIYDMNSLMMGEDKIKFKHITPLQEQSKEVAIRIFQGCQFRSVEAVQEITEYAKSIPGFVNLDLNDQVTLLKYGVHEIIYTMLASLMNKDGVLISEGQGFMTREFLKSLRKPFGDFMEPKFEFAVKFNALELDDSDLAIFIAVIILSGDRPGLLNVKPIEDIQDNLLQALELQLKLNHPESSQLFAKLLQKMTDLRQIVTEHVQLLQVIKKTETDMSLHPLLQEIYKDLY
T2 sequence (P19793 228-462 partner limits assumed): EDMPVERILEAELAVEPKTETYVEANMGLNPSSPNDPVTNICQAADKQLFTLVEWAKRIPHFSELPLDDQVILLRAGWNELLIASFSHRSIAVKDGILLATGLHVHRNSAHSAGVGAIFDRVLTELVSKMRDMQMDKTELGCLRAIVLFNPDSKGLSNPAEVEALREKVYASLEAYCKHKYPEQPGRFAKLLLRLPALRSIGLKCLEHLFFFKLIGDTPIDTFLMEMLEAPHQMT
Protocol: Compound potency (IC50) and maximal extent of MED1 repulsion to PPARG were assessed a TR-FRET binding assay measuring association of a biotinylated MED1 LxxLL peptide (Biotin-[…]-amide) to PPARG/RXRA LBD heterodimer.

SMILES	Emax [1]	pEC50 [1]	inhibition at 0.1 µM [2]	pEC50 [3]	Emax [3]	pEC50 [2]
N#Cc1ccc(Cl)c(-c2cc(=O)c3cc(F)c(F)cc3[nH]2)n1 [Example 1, 5-chloro-6-(6,7-difluoro-4-oxo-1,4-dihydroquinolin-2-yl)picolinonitrile]	> 100%	7.00 to 8.00	91%	7.00 to 8.00	> 100%	–
N#Cc1cc(-c2cc(=O)c3c(F)cc(F)cc3[nH]2)c(Cl)cn1 [Example 2, 5-chloro-4-(5,7-difluoro-4-oxo-1,4-dihydroquinolin-2-yl)picolinonitrile]	> 100%	> 8.00	91%	> 8.00	> 100%	9.85
CS(=O)(=O)c1ccc(C#N)nc1-c1cc(=O)c2c(F)cc(F)cc2[nH]1 [Example 32, 6-(5,7-difluoro-4-oxo-1,4-dihydroquinolin-2-yl)-5-(methylsulfonyl)picolinonitrile]	> 100%	> 8.00	87%	> 8.00	> 100%	–
CN(C)C(=O)[C@@H]1CCCN(c2c(F)cc3[nH]c(-c4cc(C#N)ncc4Cl)cc(=O)c3c2F)C1 [Example 22, (R)-1-(2-(5-chloro-2-cyanopyridin-4-yl)-5,7-difluoro-4-oxo-1,4-dihydroquinolin-6-yl)-N,N-dimethylpiperidine-3-carboxamide]	> 100%	> 8.00	91%	7.00 to 8.00	> 100%	–
CN1CCC(c2c(F)cc3[nH]c(-c4nc(C#N)ccc4Cl)cc(=O)c3c2F)CC1 [Example 16, 5-chloro-6-(5,7-difluoro-6-(1-methylpiperidin-4-yl)-4-oxo-1,4-dihydroquinolin-2-yl)picolinonitrile]	> 100%	7.00 to 8.00	85%	7.00 to 8.00	> 100%	–
N#Cc1cc(-c2cc(=O)c3ccc(Cl)cc3[nH]2)c(Cl)cn1 [Example 4, 5-chloro-4-(7-chloro-4-oxo-1,4-dihydroquinolin-2-yl)picolinonitrile]	> 100%	> 8.00	88%	> 8.00	> 100%	–
CN(C)C(=O)N1CCN(c2c(F)cc3[nH]c(-c4cc(C#N)ncc4Cl)cc(=O)c3c2F)CC1 [Example 21, 4-(2-(5-chloro-2-cyanopyridin-4-yl)-5,7-difluoro-4-oxo-1,4-dihydroquinolin-6-yl)-N,N-dimethylpiperazine-1-carboxamide]	> 100%	> 8.00	81%	> 8.00	> 100%	–
CN1CCN(c2cc3c(=O)cc(-c4cc(C#N)ncc4Cl)[nH]c3cc2Cl)CC1 [Example 14, 5-chloro-4-(7-chloro-6-(4-methylpiperazin-1-yl)-4-oxo-1,4-dihydroquinolin-2-yl)picolinonitrile]	> 100%	7.00 to 8.00	88%	7.00 to 8.00	> 100%	–
N#Cc1ccc(Cl)c(-c2cc(=O)c3c(F)c(N4CCS(=O)(=O)CC4)c(F)cc3[nH]2)n1 [Example 17, 5-chloro-6-(6-(1,1-dioxidothiomorpholino)-5,7-difluoro-4-oxo-1,4-dihydroquinolin-2-yl)picolinonitrile]	> 100%	7.00 to 8.00	78%	7.00 to 8.00	> 100%	–
CS(=O)(=O)c1cnc(C#N)cc1-c1cc(=O)c2ccc(Cl)cc2[nH]1 [Example 30, 4-(7-chloro-4-oxo-1,4-dihydroquinolin-2-yl)-5-(methylsulfonyl)picolinonitrile]	> 100%	> 8.00	88%	> 8.00	> 100%	–
CSc1ccc(C#N)nc1-c1cc(=O)c2c(F)cc(F)cc2[nH]1 [Example 8, 6-(5,7-difluoro-4-oxo-1,4-dihydroquinolin-2-yl)-5-(methylthio)picolinonitrile]	> 100%	< 5.00	–	< 5.00	> 100%	–
COc1ccc(C#N)nc1-c1cc(=O)c2c(F)cc(F)cc2[nH]1 [Example 7, 6-(5,7-difluoro-4-oxo-1,4-dihydroquinolin-2-yl)-5-methoxypicolinonitrile]	> 100%	< 5.00	23%	< 5.00	> 100%	–
N#Cc1ccc(Cl)c(-c2cc(=O)c3ccc(Cl)cc3[nH]2)n1 [Example 6, 5-chloro-6-(7-chloro-4-oxo-1,4-dihydroquinolin-2-yl)picolinonitrile]	> 100%	> 8.00	73%	> 8.00	> 100%	–
COc1cnc(C#N)cc1-c1cc(=O)c2c(F)cc(F)cc2[nH]1 [Example 9, 4-(5,7-difluoro-4-oxo-1,4-dihydroquinolin-2-yl)-5-methoxypicolinonitrile]	< 100%	6.00 to 7.00	22%	6.00 to 7.00	> 100%	–
N#Cc1ccc(Cl)c(-c2cc(=O)c3ccccc3[nH]2)n1 [Example 5, 5-chloro-6-(4-oxo-1,4-dihydroquinolin-2-yl)picolinonitrile]	< 100%	7.00 to 8.00	71%	7.00 to 8.00	> 100%	–
CN(C)C(=O)[C@H]1CCCN(c2c(F)cc3[nH]c(-c4cc(C#N)ncc4Cl)cc(=O)c3c2F)C1 [Example 23, (S)-1-(2-(5-chloro-2-cyanopyridin-4-yl)-5,7-difluoro-4-oxo-1,4-dihydroquinolin-6-yl)-N,N-dimethylpiperidine-3-carboxamide]	> 100%	> 8.00	76%	> 8.00	> 100%	–
CN(C)CCOc1cnc(C#N)cc1-c1cc(=O)c2c(F)cc(F)cc2[nH]1 [Example 11, 4-(5,7-difluoro-4-oxo-1,4-dihydroquinolin-2-yl)-5-(2-(dimethylamino)-ethoxy)-picolinonitrile]	> 100%	5.00 to 6.00	58%	5.00 to 6.00	> 100%	–
C[S+]([O-])c1cnc(C#N)cc1-c1cc(=O)c2c(F)cc(F)cc2[nH]1 (centres unmarked) [Example 28, 4-(5,7-difluoro-4-oxo-1,4-dihydroquinolin-2-yl)-5-(methylsulfinyl)picolinonitrile]	> 100%	7.00 to 8.00	79%	7.00 to 8.00	> 100%	–
CN(C)C(=O)[C@H]1CCN(c2c(F)cc3[nH]c(-c4cc(C#N)ncc4Cl)cc(=O)c3c2F)C1 [Example 26, (S)-1-(2-(5-chloro-2-cyanopyridin-4-yl)-5,7-difluoro-4-oxo-1,4-dihydroquinolin-6-yl)-N,N-dimethylpyrrolidine-3-carboxamide]	> 100%	> 8.00	85%	> 8.00	> 100%	–
CN(C)C(=O)C1CCN(c2c(F)cc3[nH]c(-c4cc(C#N)ncc4Cl)cc(=O)c3c2F)CC1 [Example 19, 1-(2-(5-chloro-2-cyanopyridin-4-yl)-5,7-difluoro-4-oxo-1,4-dihydroquinolin-6-yl)-N,N-dimethylpiperidine-4-carboxamide]	> 100%	7.00 to 8.00	84%	7.00 to 8.00	> 100%	–
CN1CCC(c2c(F)cc3[nH]c(-c4cc(C#N)ncc4Cl)cc(=O)c3c2F)CC1 [Example 20, 5-chloro-4-(5,7-difluoro-6-(1-methylpiperidin-4-yl)-4-oxo-1,4-dihydroquinolin-2-yl)picolinonitrile]	> 100%	7.00 to 8.00	80%	7.00 to 8.00	> 100%	–
CS(=O)(=O)c1cnc(C#N)cc1-c1cc(=O)c2c(F)cc(F)cc2[nH]1 [Example 29, 4-(5,7-difluoro-4-oxo-1,4-dihydroquinolin-2-yl)-5-(methylsulfonyl)picolinonitrile]	–	–	90%	–	–	9.31
